Each cell line was assayed with CC1CC(=O)N(C2=CN=C(N=C2N1C3CCCC3)NC4=C(C=C(C=C4)C(=O)NC5CCN(CC5)C)OC)C [NPK76-II-72-1] + CCNC(=O)c1noc(-c2cc(C(C)C)c(O)cc2O)c1-c1ccc(CN2CCOCC2)cc1 [Luminespib] (partner 0.01 µM) (assay: relative viability (nuclei count vs DMSO), 5 days (fraction); higher = more cells survive). Settings: first compound 0.01 µM.
Summary of the method: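 Nuclei were stained with Hoechst during a one-step fixation (final 0.05% Triton X-100, 1% formaldehyde, 1 ug/ml Hoechst) carried out 5 days after dosing, then counted on 4× images. The cells, lung cancer lines in 1536-well plates, had been dosed by pin tool the day after seeding with one drug alone or a fixed anchor-drug dose plus five library-drug doses (not always all listed) in √10 steps. Relative viability is the nuclei count in treated wells divided by that in vehicle wells, and each value is the median of duplicate plates.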

| Cell Line | relative viability |
| --- | --- |
| BEN | 0.326 |
| HARA | 0.854 |
| NCI-H322M | 0.818 |
| LCLC-97TM1 | 0.673 |
| NCI-H2009 | 0.976 |
| A-427 | 0.827 |
| NCI-H441 | 0.35 |
| NCI-H661 | 0.964 |
| NCI-H1734 | 0.167 |
| NCI-H460 | 0.0406 |
| NCI-H2347 | 0.529 |
| SK-LU-1 | 0.181 |
| NCI-H1395 | 0.774 |
| 201T | 1.05 |
| NCI-H1915 | 0.762 |
| HCC-827 | 0.602 |

| Cell Line | relative viability |
| --- | --- |
| LXF-289 | 0.614 |
| NCI-H23 | 0.237 |
| NCI-H647 | 0.189 |
| CAL-12T | 0.4 |
| NCI-H1651 | 0.925 |
| EPLC-272H | 0.161 |
| NCI-H2228 | 0.177 |
| NCI-H1355 | 0.678 |
| NCI-H3122 | 0.095 |
| NCI-H1437 | 1.03 |
| NCI-H1755 | 0.579 |
| NCI-H2023 | 0.766 |
| HCC-15 | 0.226 |
| NCI-H1793 | 0.144 |
| PC-14 | 0.133 |
| EKVX | 0.735 |

Same assay, conditions: first compound 0.03162 µM

| Cell Line | relative viability |
| --- | --- |
| BEN | 0.332 |
| HARA | 0.831 |
| NCI-H322M | 0.826 |
| LCLC-97TM1 | 0.768 |
| NCI-H2009 | 1.1 |
| A-427 | 1.06 |
| NCI-H441 | 0.348 |
| NCI-H661 | 0.943 |
| NCI-H1734 | 0.178 |
| NCI-H460 | 0.0404 |
| NCI-H2347 | 0.593 |
| SK-LU-1 | 0.206 |
| NCI-H1395 | 0.76 |
| 201T | 1.04 |
| NCI-H1915 | 0.798 |
| HCC-827 | 0.619 |

| Cell Line | relative viability |
| --- | --- |
| LXF-289 | 0.761 |
| NCI-H23 | 0.209 |
| NCI-H647 | 0.188 |
| CAL-12T | 0.65 |
| NCI-H1651 | 0.995 |
| NCI-H2228 | 0.143 |
| NCI-H1355 | 0.716 |
| NCI-H3122 | 0.101 |
| NCI-H1437 | 1.13 |
| NCI-H1755 | 0.563 |
| NCI-H2023 | 1.03 |
| HCC-15 | 0.256 |
| NCI-H1793 | 0.166 |
| PC-14 | 0.125 |
| EKVX | 0.863 |

Same assay, conditions: first compound 0.1 µM

| Cell Line | relative viability |
| --- | --- |
| BEN | 0.325 |
| HARA | 0.668 |
| NCI-H322M | 0.943 |
| LCLC-97TM1 | 0.532 |
| NCI-H2009 | 1.01 |
| A-427 | 0.94 |
| NCI-H441 | 0.299 |
| NCI-H661 | 0.892 |
| NCI-H1734 | 0.189 |
| NCI-H460 | 0.0346 |
| NCI-H2347 | 0.459 |
| SK-LU-1 | 0.213 |
| NCI-H1395 | 0.678 |
| 201T | 0.998 |
| NCI-H1915 | 0.75 |
| HCC-827 | 0.447 |

| Cell Line | relative viability |
| --- | --- |
| LXF-289 | 0.675 |
| NCI-H23 | 0.228 |
| NCI-H647 | 0.143 |
| CAL-12T | 0.93 |
| NCI-H1651 | 0.698 |
| EPLC-272H | 0.313 |
| NCI-H2228 | 0.174 |
| NCI-H1355 | 0.756 |
| NCI-H3122 | 0.113 |
| NCI-H1437 | 1.09 |
| NCI-H1755 | 0.264 |
| NCI-H2023 | 0.871 |
| HCC-15 | 0.275 |
| NCI-H1793 | 0.203 |
| PC-14 | 0.239 |
| EKVX | 0.912 |

Same assay, conditions: first compound 0.3162 µM

| Cell Line | relative viability |
| --- | --- |
| BEN | 0.403 |
| HARA | 0.439 |
| NCI-H322M | 0.783 |
| LCLC-97TM1 | 0.748 |
| NCI-H2009 | 1.07 |
| A-427 | 0.905 |
| NCI-H441 | 0.425 |
| NCI-H661 | 0.906 |
| NCI-H1734 | 0.17 |
| NCI-H460 | 0.0272 |
| NCI-H2347 | 0.526 |
| SK-LU-1 | 0.196 |
| NCI-H1395 | 0.709 |
| 201T | 1.04 |
| NCI-H1915 | 0.7 |
| HCC-827 | 0.879 |

| Cell Line | relative viability |
| --- | --- |
| LXF-289 | 0.694 |
| NCI-H23 | 0.228 |
| NCI-H647 | 0.202 |
| CAL-12T | 0.143 |
| NCI-H1651 | 0.743 |
| EPLC-272H | 0.264 |
| NCI-H2228 | 0.133 |
| NCI-H1355 | 0.67 |
| NCI-H3122 | 0.0814 |
| NCI-H1437 | 1.03 |
| NCI-H1755 | 0.371 |
| NCI-H2023 | 0.594 |
| HCC-15 | 0.16 |
| NCI-H1793 | 0.176 |
| PC-14 | 0.132 |
| EKVX | 0.888 |

Same assay, conditions: first compound 1 µM

| Cell Line | relative viability |
| --- | --- |
| BEN | 0.329 |
| HARA | 0.895 |
| NCI-H322M | 1.01 |
| LCLC-97TM1 | 0.748 |
| NCI-H2009 | 1.04 |
| A-427 | 1.02 |
| NCI-H441 | 0.536 |
| NCI-H661 | 0.933 |
| NCI-H1734 | 0.186 |
| NCI-H460 | 0.0329 |
| NCI-H2347 | 0.437 |
| SK-LU-1 | 0.209 |
| NCI-H1395 | 0.863 |
| 201T | 1.09 |
| NCI-H1915 | 0.845 |
| HCC-827 | 0.702 |

| Cell Line | relative viability |
| --- | --- |
| LXF-289 | 0.688 |
| NCI-H23 | 0.201 |
| NCI-H647 | 0.23 |
| CAL-12T | 0.408 |
| NCI-H1651 | 0.852 |
| EPLC-272H | 0.58 |
| NCI-H2228 | 0.166 |
| NCI-H1355 | 0.763 |
| NCI-H3122 | 0.079 |
| NCI-H1437 | 1.08 |
| NCI-H1755 | 0.503 |
| NCI-H2023 | 0.888 |
| HCC-15 | 0.318 |
| NCI-H1793 | 0.201 |
| PC-14 | 0.164 |
| EKVX | 0.95 |

From the supplement of paper PMC10307832
